The values below come from PMC3994029 (PLoS ONE, 2014).

Test in all cases: competition of […]-glucose uptake by germinating conidia
Holding throughout (type): cell-based

In test [1] the target is T1, MstC (SorA) (Aspergillus nidulans, UniProt Q5AYG1).
T1 construct: gene ANIA_06669; native full-length protein, 534 aa, in intact germinating conidia (4 h, glycerol)
T1 sequence (Q5AYG1 1-534): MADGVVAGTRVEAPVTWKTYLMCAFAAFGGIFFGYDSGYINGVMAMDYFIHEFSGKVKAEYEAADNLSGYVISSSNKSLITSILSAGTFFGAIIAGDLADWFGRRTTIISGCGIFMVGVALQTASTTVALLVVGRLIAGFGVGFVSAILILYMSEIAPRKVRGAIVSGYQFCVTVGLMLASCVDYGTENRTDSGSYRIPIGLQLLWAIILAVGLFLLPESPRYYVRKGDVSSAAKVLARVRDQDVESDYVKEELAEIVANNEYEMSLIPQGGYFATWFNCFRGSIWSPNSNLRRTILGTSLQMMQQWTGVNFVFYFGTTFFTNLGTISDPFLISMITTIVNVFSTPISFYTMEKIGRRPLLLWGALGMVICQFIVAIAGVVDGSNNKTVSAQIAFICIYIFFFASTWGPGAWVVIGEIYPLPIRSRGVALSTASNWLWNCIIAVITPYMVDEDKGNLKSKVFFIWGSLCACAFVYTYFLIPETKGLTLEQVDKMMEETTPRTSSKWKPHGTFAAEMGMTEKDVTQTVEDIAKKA
As to conditions: wild type V004 conidia germinated on glycerol; 16 µM 14C-glucose, 200-fold excess competitor (3.2 mM).

In test [2] the target is T2, MstA (Aspergillus nidulans, UniProt Q5ASJ3).
T2 construct: gene ANIA_08737; full-length protein, 527 aa, homologous expression from mstC promoter in mstA mstC double-deleted A. nidulans; intact germinating conidia
As to conditions: V152 conidia germinated on glycerol; 90 µM 14C-glucose, 200-fold excess competitor (18 mM); minor low-affinity background uptake.

Test [3] concerns the target T1, MstC (SorA). The settings on record: wild type V004 conidia germinated on glycerol; 16 µM 14C-glucose, 200-fold excess competitor (3.2 mM). This is another data set of the same source.

T2 sequence (Q5ASJ3 entry or part of it): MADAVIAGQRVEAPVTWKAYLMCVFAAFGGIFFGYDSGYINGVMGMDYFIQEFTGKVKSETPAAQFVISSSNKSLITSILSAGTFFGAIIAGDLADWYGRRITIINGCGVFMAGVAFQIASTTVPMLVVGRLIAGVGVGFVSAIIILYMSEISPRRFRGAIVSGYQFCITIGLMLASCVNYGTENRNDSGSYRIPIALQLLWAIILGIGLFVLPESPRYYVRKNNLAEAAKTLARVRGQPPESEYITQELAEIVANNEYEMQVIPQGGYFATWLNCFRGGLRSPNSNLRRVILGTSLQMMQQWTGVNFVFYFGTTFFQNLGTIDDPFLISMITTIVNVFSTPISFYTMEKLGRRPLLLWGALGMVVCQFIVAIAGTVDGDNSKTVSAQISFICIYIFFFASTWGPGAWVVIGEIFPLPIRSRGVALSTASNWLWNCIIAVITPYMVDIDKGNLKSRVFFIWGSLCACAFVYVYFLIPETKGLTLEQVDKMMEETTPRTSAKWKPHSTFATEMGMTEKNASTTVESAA

`CO[C@H]1[C@H](O)[C@@H](CO)OC(O)[C@@H]1O` (stereo partly drawn) [3-O-methyl glucose]: in test [1], the “relative uptake rate, % of control” value is “most effective competitor, along with the glucose analogues 2-DOG and 3-O-methyl glucose”.

For the compound `OC[C@H]1OC(O)C[C@@H](O)[C@@H]1O` (stereo partly drawn) [2-DOG], the “relative uptake rate, % of control” value in test [1] was “most effective competitor, along with the glucose analogues 2-DOG and 3-O-methyl glucose”.

In the case of `OC[C@H]1OC(O)[C@H](O)[C@@H](O)[C@H]1O` (stereo partly drawn) [galactose], the “relative uptake rate, % of control” value in test [2] was “xylose and galactose may also be minor physiological sugar substrates for this transporter”.

In the case of `OC1OC[C@@H](O)[C@H](O)[C@H]1O` (stereo partly drawn) [xylose], in test [2], the “relative uptake rate, % of control” value is “xylose and galactose may also be minor physiological sugar substrates for this transporter”.

Take `OC[C@H]1OC(O)[C@@H](O)[C@@H](O)[C@@H]1O` (stereo partly drawn) [mannose]: in test [2], the “relative uptake rate, % of control” value is on record as “mannose is the most effective substrate of those studied in competing against glucose uptake”. Further, the “% reduction of uptake” value in test [3] was determined as 80%.
